Experimental data from patent publication US20100168084A1, “Therapeutic compounds and related methods of use” (priority 2008, published 2010).

Biological target: T1, sirtuin protein (Homo sapiens, UniProt Q96EB6)
T1 sequence (Q96EB6 2-747 limits assumed): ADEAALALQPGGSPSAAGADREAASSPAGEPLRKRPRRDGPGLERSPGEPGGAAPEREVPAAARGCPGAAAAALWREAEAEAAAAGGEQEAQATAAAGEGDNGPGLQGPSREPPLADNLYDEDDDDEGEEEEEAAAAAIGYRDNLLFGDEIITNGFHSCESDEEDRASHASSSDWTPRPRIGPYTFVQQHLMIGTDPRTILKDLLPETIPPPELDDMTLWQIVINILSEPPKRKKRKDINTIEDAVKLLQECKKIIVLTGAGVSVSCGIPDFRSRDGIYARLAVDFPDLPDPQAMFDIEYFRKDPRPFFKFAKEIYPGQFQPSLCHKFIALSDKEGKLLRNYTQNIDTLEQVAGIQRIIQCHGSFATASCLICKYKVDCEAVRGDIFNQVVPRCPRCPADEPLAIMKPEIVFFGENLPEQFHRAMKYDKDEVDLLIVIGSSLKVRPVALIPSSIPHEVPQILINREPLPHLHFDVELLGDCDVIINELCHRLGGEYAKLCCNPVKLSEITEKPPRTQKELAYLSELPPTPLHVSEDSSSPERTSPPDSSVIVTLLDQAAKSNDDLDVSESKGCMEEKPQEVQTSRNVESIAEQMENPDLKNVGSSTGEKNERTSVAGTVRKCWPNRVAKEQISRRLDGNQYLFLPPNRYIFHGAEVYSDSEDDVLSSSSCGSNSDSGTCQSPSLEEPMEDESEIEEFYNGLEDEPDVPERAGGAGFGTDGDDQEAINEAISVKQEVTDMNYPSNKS
Test: MS assay (IC50 MS ASSAY / ED50 MS / FOLD ACTIVATION MS)
Format: biochemical
Parameters: scale not given here

[1] = Table 4, class symbols, legend not given
[2] = Table 4, class symbols A′, A, B, D, NA, legend not given
[3] = MS assay, class symbols A′, A, B, D, NA, legend not given

Measured: ED50 MS ASSAY

COc1cc(C(=O)Nc2ccccc2-c2cn3cc(CN(C)C)sc3n2)cc(OC)c1OC [Compound 179]
A′: TABLE 4 | Table 4 | [1] | class symbols, no key given

COc1ccc(C(=O)Nc2cccc(-c3nc4cccnc4[nH]3)c2)c(OC)c1OC [Compound 181]
A′: TABLE 4 | Table 4 | [1] | class symbols, no key given

COc1cc(C)ccc1C(=O)Nc1cccc(-c2nc3cccnc3[nH]2)c1 [Compound 182]
A′: TABLE 4 | Table 4 | [1] | class symbols, no key given

COc1ccc(C(=O)Nc2cccc(-c3nc4ncccc4[nH]3)c2)c(OC)c1 [Compound 184]
A′: TABLE 4 | Table 4 | [1] | class symbols, no key given

COc1ccc(C(=O)Nc2cccc(-c3nc4cccnc4[nH]3)c2)cc1OC [Compound 185]
A′: TABLE 4 | Table 4 | [1] | class symbols, no key given

COc1ccc(C(=O)Nc2ccc(-c3cc4cccnc4o3)cc2)c(OC)c1 [Compound 190]
A′: TABLE 4 | Table 4 | [1] | class symbols, no key given

COc1ccc(C(=O)Nc2cccc(-c3cc4cccnc4o3)c2)c(OC)c1 [Compound 191]
A′: TABLE 4 | Table 4 | [1] | class symbols, no key given

COc1cc(C)ccc1C(=O)Nc1cccc(-c2nc3ncccc3s2)c1 [Compound 199]
A′: TABLE 4 | Table 4 | [1] | class symbols, no key given

CN(C)c1cccc(C(=O)Nc2cccc(-c3nc4ncccc4s3)c2)c1 [Compound 200]
A′: TABLE 4 | Table 4 | [1] | class symbols, no key given

COc1ccc(C(=O)Nc2cccc(-c3nc4ncccc4s3)c2)c(OC)c1 [Compound 202]
A′: TABLE 4 | Table 4 | [1] | class symbols, no key given

COc1ccc(C(=O)Nc2ccccc2-c2cn3ccsc3n2)cc1OC [Compound 203]
A′: TABLE 4 | Table 4 | [1] | class symbols, no key given

COc1cc(C(=O)Nc2ccccc2-c2cn3ccsc3n2)cc(OC)c1OC [Compound 204]
A′: TABLE 4 | Table 4 | [1] | class symbols, no key given

COc1ccc(C(=O)Nc2cccc(-c3nc4ccccc4[nH]3)c2)c(OC)c1 [Compound 211]
A′: TABLE 4 | Table 4 | [1] | class symbols, no key given

COc1ccc(C(=O)Nc2cccc(-c3nc4cccnc4s3)c2)c(OC)c1 [Compound 213]
A′: TABLE 4 | Table 4 | [1] | class symbols, no key given

COc1cc(OC)cc(C(=O)Nc2cccc(-c3nc4cccnc4s3)c2)c1 [Compound 215]
A′: TABLE 4 | Table 4 | [1] | class symbols, no key given

COc1ccc(C(=O)Nc2cccc(-c3nc4cccnc4s3)c2)cc1 [Compound 216]
A′: TABLE 4 | Table 4 | [1] | class symbols, no key given

COc1cc(C(=O)Nc2cccc(-c3nc4cccnc4s3)c2)cc(OC)c1OC [Compound 217]
A′: TABLE 4 | Table 4 | [1] | class symbols, no key given

COc1cc(C(=O)Nc2cccc(-c3cn4cccnc4n3)c2)cc(OC)c1OC [Compound 218]
A′: Table 4 | [2] | class symbols, no key given

COc1ccc(C(=O)Nc2ccccc2-c2cc3ccccc3[nH]2)cc1OC [Compound 254]
A′: [3] | Table 4 | [2]

COc1cc(C(=O)Nc2ccccc2-c2cc3ccccc3[nH]2)cc(OC)c1OC [Compound 255]
A′: [3] | Table 4 | [2]

COc1cc(C(=O)Nc2cccc(-c3nc4ccccc4[nH]3)n2)cc(OC)c1OC [Compound 259]
A′: [3] | Table 4 | [2]

COc1ccc(C(=O)Nc2cccc(-c3nc4ccccc4[nH]3)n2)cc1OC [Compound 260]
A′: [3] | Table 4 | [2]

COc1ccc(C(=O)Nc2ccc(-c3nc4ccccc4[nH]3)cc2)c(OC)c1 [Compound 262]
A′: [3] | Table 4 | [2]

COc1ccc(C(=O)Nc2ccccc2-c2cn3ccccc3n2)cc1OC [Compound 266]
A′: [3] | Table 4 | [2]

COc1cc(C(=O)Nc2ccccc2-c2cn3ccccc3n2)cc(OC)c1OC [Compound 267]
A′: [3] | Table 4 | [2]

CN(C)c1cccc(C(=O)Nc2ccccc2-c2cn3ccccc3n2)c1 [Compound 268]
A′: [3] | Table 4 | [2]

COc1cc(C(=O)Nc2ccccc2-c2cn3cc(CN4CCNCC4)sc3n2)cc(OC)c1OC [Compound 271]
A′: [3] | Table 4 | [2]

COc1ccc(C(=O)Nc2cccc(-c3nc4cnccc4s3)c2)c(OC)c1 [Compound 272]
A′: [3] | Table 4 | [2]

COc1ccc(C(=O)Nc2ncccc2-c2nc3ccccc3[nH]2)cc1OC [Compound 276]
A′: [3] | Table 4 | [2]

COc1cc(C(=O)Nc2ccccc2-c2nc3ccccc3[nH]2)cc(OC)c1OC [Compound 293]
A′: [3] | Table 4 | [2]

COc1ccc(C(=O)Nc2ccc(-c3nc4ccccc4[nH]3)cc2)cc1OC [Compound 294]
A′: [3] | Table 4 | [2]

COc1ccc(C(=O)Nc2ccccc2-c2nc3cnccc3s2)c(OC)c1 [Compound 317]
A′: [3] | Table 4 | [2]

COc1cc(C(=O)Nc2ccccc2-c2nc3cnccc3s2)cc(OC)c1OC [Compound 319]
A′: [3] | Table 4 | [2]

CN(C)c1ccc(C(=O)Nc2ccccc2-c2nc3cnccc3s2)cc1 [Compound 320]
A′: [3] | Table 4 | [2]

CN(C)c1cccc(C(=O)Nc2ccccc2-c2nc3cnccc3s2)c1 [Compound 321]
A′: [3] | Table 4 | [2]

COc1cc(C(=O)Nc2ccc(-c3nc4ccncc4o3)cc2)cc(OC)c1OC [Compound 341]
A′: [3] | Table 4 | [2]

COc1cc(C(=O)Nc2ccc(-c3nc4cnccc4o3)cc2)cc(OC)c1OC [Compound 347]
A′: [3] | Table 4 | [2]

CN(C)c1cccc(C(=O)Nc2cccc(-c3nc4cnccc4s3)c2)c1 [Compound 402]
A′: [3] | Table 4 | [2]

CN(C)c1ccc(C(=O)Nc2cccc(-c3nc4cnccc4s3)c2)cc1 [Compound 403]
A′: [3] | Table 4 | [2]

COc1cc(OC)cc(C(=O)Nc2ccccc2-c2nc3cnccc3o2)c1 [Compound 404]
A′: [3] | Table 4 | [2]

COc1cc(C(=O)Nc2ccccc2-c2nc3cnccc3o2)cc(OC)c1OC [Compound 405]
A′: [3] | Table 4 | [2]

CN(C)c1cccc(C(=O)Nc2ccccc2-c2nc3cnccc3o2)c1 [Compound 406]
A′: [3] | Table 4 | [2]

CN(C)c1ccc(C(=O)Nc2ccccc2-c2nc3cnccc3o2)cc1 [Compound 407]
A′: [3] | Table 4 | [2]

COc1ccc(C(=O)Nc2ccc(-c3nc4cnccc4o3)s2)cc1OC [Compound 423]
A′: [3] | Table 4 | [2]

COc1cc(C(=O)Nc2ccc(-c3nc4cnccc4o3)s2)cc(OC)c1OC [Compound 426]
A′: [3] | Table 4 | [2]

CN(C)c1cccc(C(=O)Nc2ccc(-c3nc4cnccc4o3)s2)c1 [Compound 427]
A′: [3] | Table 4 | [2]
